Like-named read-outs stand apart in the source and are kept apart here.
Tested on: HEK293T cells
Type: cell-based
Details: 1 µM, HEK293T
How it was run: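 HEK293T and U2OS cells (DMEM) and MRC-9 fibroblasts (EMEM) exposed to compounds at 1 and 10 μM. Live-cell confocal imaging of cell shape and fluorescence before and at 12, 24 and 48 h. Normalized to 0.1% DMSO; biological duplicates with SEM.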

CC(C)C(=O)Nc1ncc(-c2cc(C(F)F)nn2-c2c(Cl)cccc2Cl)s1 [LIMKi3]
Cell count normalized to cells treated with DMSO control (0 h, biological replicate 1): 1.015
Cell count per well (0 h, biological replicate 1): 303
Population Fragmented Nuclei (%) (0 h, biological replicate 1): 7.35%
Population Healthy Nuclei (%) (0 h, biological replicate 1): 47.06%
Population Pyknosed Nuclei (%) (0 h, biological replicate 1): 45.59%
Population apoptotic cell (%) (0 h, biological replicate 1): 38.71%
Population cell that influence microtubule strucutre (%) (0 h, biological replicate 1): 19.53%
Population with increased mitochondrial mass (%) (0 h, biological replicate 1): 60.16%
Population with membrane disruption (%) (0 h, biological replicate 1): 0.00%
Cell count normalized to cells treated with DMSO control (0 h, biological replicate 2): 1.15
Cell count per well (0 h, biological replicate 2): 263
Population Fragmented Nuclei (%) (0 h, biological replicate 2): 1.64%
Population Healthy Nuclei (%) (0 h, biological replicate 2): 65.98%
Population Pyknosed Nuclei (%) (0 h, biological replicate 2): 32.38%
Population apoptotic cell (%) (0 h, biological replicate 2): 63.29%
Population cell that influence microtubule strucutre (%) (0 h, biological replicate 2): 26.71%
Population with increased mitochondrial mass (%) (0 h, biological replicate 2): 85.09%
Population with membrane disruption (%) (0 h, biological replicate 2): 0.00%
Cell count normalized to cells treated with DMSO control (12 h, biological replicate 1): 0.9245
Cell count per well (12 h, biological replicate 1): 421
Population Fragmented Nuclei (%) (12 h, biological replicate 1): 4.05%
Population Healthy Nuclei (%) (12 h, biological replicate 1): 82.03%
Population Pyknosed Nuclei (%) (12 h, biological replicate 1): 13.92%
Population apoptotic cell (%) (12 h, biological replicate 1): 40.00%
Population cell that influence microtubule strucutre (%) (12 h, biological replicate 1): 44.44%
Population with increased mitochondrial mass (%) (12 h, biological replicate 1): 48.77%
Population with membrane disruption (%) (12 h, biological replicate 1): 0.62%
Cell count normalized to cells treated with DMSO control (12 h, biological replicate 2): 1.019
Cell count per well (12 h, biological replicate 2): 357
Population Fragmented Nuclei (%) (12 h, biological replicate 2): 6.58%
Population Healthy Nuclei (%) (12 h, biological replicate 2): 83.39%
Population Pyknosed Nuclei (%) (12 h, biological replicate 2): 10.03%
Population apoptotic cell (%) (12 h, biological replicate 2): 53.13%
Population cell that influence microtubule strucutre (%) (12 h, biological replicate 2): 34.59%
Population with increased mitochondrial mass (%) (12 h, biological replicate 2): 63.16%
Population with membrane disruption (%) (12 h, biological replicate 2): 0.38%
Cell count normalized to cells treated with DMSO control (24 h, biological replicate 1): 0.9573
Cell count per well (24 h, biological replicate 1): 581
Population Fragmented Nuclei (%) (24 h, biological replicate 1): 6.08%
Population Healthy Nuclei (%) (24 h, biological replicate 1): 81.40%
Population Pyknosed Nuclei (%) (24 h, biological replicate 1): 12.52%
Population apoptotic cell (%) (24 h, biological replicate 1): 38.57%
Population cell that influence microtubule strucutre (%) (24 h, biological replicate 1): 25.27%
Population with increased mitochondrial mass (%) (24 h, biological replicate 1): 30.55%
Population with membrane disruption (%) (24 h, biological replicate 1): 1.32%
Cell count normalized to cells treated with DMSO control (24 h, biological replicate 2): 1.028
Cell count per well (24 h, biological replicate 2): 464
Population Fragmented Nuclei (%) (24 h, biological replicate 2): 11.83%
Population Healthy Nuclei (%) (24 h, biological replicate 2): 78.42%
Population Pyknosed Nuclei (%) (24 h, biological replicate 2): 9.74%
Population apoptotic cell (%) (24 h, biological replicate 2): 30.95%
Population cell that influence microtubule strucutre (%) (24 h, biological replicate 2): 20.41%
Population with increased mitochondrial mass (%) (24 h, biological replicate 2): 38.46%
Population with membrane disruption (%) (24 h, biological replicate 2): 0.30%
Cell count normalized to cells treated with DMSO control (48 h, biological replicate 1): 0.8177
Cell count per well (48 h, biological replicate 1): 827
Population Fragmented Nuclei (%) (48 h, biological replicate 1): 14.02%
Population Healthy Nuclei (%) (48 h, biological replicate 1): 79.47%
Population Pyknosed Nuclei (%) (48 h, biological replicate 1): 6.51%
Population apoptotic cell (%) (48 h, biological replicate 1): 28.85%
Population cell that influence microtubule strucutre (%) (48 h, biological replicate 1): 17.17%
Population with increased mitochondrial mass (%) (48 h, biological replicate 1): 22.36%
Population with membrane disruption (%) (48 h, biological replicate 1): 1.10%
Cell count normalized to cells treated with DMSO control (48 h, biological replicate 2): 1.021
Cell count per well (48 h, biological replicate 2): 697
Population Fragmented Nuclei (%) (48 h, biological replicate 2): 11.19%
Population Healthy Nuclei (%) (48 h, biological replicate 2): 83.72%
Population Pyknosed Nuclei (%) (48 h, biological replicate 2): 5.09%
Population apoptotic cell (%) (48 h, biological replicate 2): 14.29%
Population cell that influence microtubule strucutre (%) (48 h, biological replicate 2): 14.58%
Population with increased mitochondrial mass (%) (48 h, biological replicate 2): 22.05%
Population with membrane disruption (%) (48 h, biological replicate 2): 0.69%
